Test results: ChEMBL document CHEMBL2016563, “Synthesis of new bergenin derivatives as potent inhibitors of inflammatory mediators NO and TNF-α” (Bioorg Med Chem Lett, 2012); call rule not given here
pIC50: −log10 of the molar value.

How the values were obtained:
[1] = Antiinflammatory activity in human neutrophils assessed as inhibition of opsonized zymosan A-mediated superoxide anions production by WST-1 based respiratory burst assay; type: functional, cell-based, Neutrophil; settings: for pIC50: Homo sapiens, Neutrophil, read-out: IC50; for IC50: neutrophil
NIH3T3 = assay: Cytotoxicity against mouse 3T3 cells at 100 uM after 72 hrs by MTT assay; type: cell-based; settings: nih3t3, 72 h
J774.2 [2] = assay: Antiinflammatory activity in mouse J774.2 cells assessed as inhibition of LPS-induced NO production at 60 uM after 48 hrs by spectrophotometry; type: functional; settings: J774.2, 48 h
THP-1 [3] = assay: Antiinflammatory activity in human THP1 cells assessed as inhibition of LPS-B-induced TNF-alpha production at 60 uM after 4 hrs; type: functional; settings: THP-1, 4 h
THP-1 [4] = assay: Induction of LPS-B-induced TNF-alpha production in human THP1 cells at 60 uM after 4 hrs; type: functional
J774.2 [5] = assay: Induction of LPS-induced NO production in mouse J774.2 cells at 60 uM after 48 hrs by spectrophotometry; type: functional

| Structure (SMILES) | pIC50 [1] | Activity (NIH3T3) | inhibition at 60 µM (J774.2 [2]) [%] | inhibition at 60 µM (THP-1 [3]) [%] | Activity (THP-1 [4]) [%] | IC50 [1] | Activity (J774.2 [5]) [%] |
| --- | --- | --- | --- | --- | --- | --- | --- |
| COc1ccc2c(c1)c(CC(=O)O)c(C)n2C(=O)c1ccc(Cl)cc1 [INDOMETHACIN] | 3.57 |  |  |  |  |  |  |
| CCOc1cc2c(c(OCC)c1OC)[C@@H]1O[C@H](CO)[C@@H](O)[C@H](O)[C@H]1OC2=O | 3.49 | Non-toxic | 54.5 | 98.6 |  |  |  |
| COc1c(OCC#N)cc2c(c1OCC#N)[C@@H]1O[C@H](CO)[C@@H](O)[C@H](O)[C@H]1OC2=O | 3.38 | Non-toxic | 13.3 |  | 26.21 |  |  |
| CCCOc1cc2c(c(OCCC)c1OC)[C@@H]1O[C@H](CO)[C@@H](O)[C@H](O)[C@H]1OC2=O |  | Non-toxic | 8.9 |  | 5.57 | Not Active |  |
| C=CCCCCOc1cc2c(c(OCCCCC=C)c1OC)[C@@H]1O[C@H](CO)[C@@H](O)[C@H](O)[C@H]1OC2=O | 3.57 | Non-toxic | 9.4 | 17.7 |  |  |  |
| CCCCOc1cc2c(c(OCCCC)c1OC)[C@@H]1O[C@H](CO)[C@@H](O)[C@H](O)[C@H]1OC2=O | 3.39 | Non-toxic | 31.2 | 26.3 |  |  |  |
| C=CCCOc1cc2c(c(OCCC=C)c1OC)[C@@H]1O[C@H](CO)[C@@H](O)[C@H](O)[C@H]1OC2=O | 3.54 | Non-toxic | 3.6 |  | 13.27 |  |  |
| CCCCCCCOc1cc2c(c(OCCCCCCC)c1OC)[C@@H]1O[C@H](CO)[C@@H](O)[C@H](O)[C@H]1OC2=O | 3.67 | Non-toxic | 18 | 28.7 |  |  |  |
| COc1cc2c(c(OC)c1OC)[C@@H]1O[C@H](CO)[C@@H](O)[C@H](O)[C@H]1OC2=O |  | Non-toxic | 47.6 | 0.44 |  | Not Active |  |
| COc1c(OC(C)C)cc2c(c1OC(C)C)[C@@H]1O[C@H](CO)[C@@H](O)[C@H](O)[C@H]1OC2=O | 3.52 | Non-toxic |  |  | 8.44 |  | 5.5 |
| CCOC(=O)COc1cc2c(c(OCC(=O)OCC)c1OC)[C@@H]1O[C@H](CO)[C@@H](O)[C@H](O)[C@H]1OC2=O | 3.60 | Non-toxic | 86.8 | 96.2 |  |  |  |
| COc1c(OCC(=O)OC(C)(C)C)cc2c(c1OCC(=O)OC(C)(C)C)[C@@H]1O[C@H](CO)[C@@H](O)[C@H](O)[C@H]1OC2=O | 3.32 | Non-toxic | 16.3 | 9.6 |  |  |  |
| CNC(=N)NCCC[C@H](N)C(=O)O [TILARGININE ACETATE] |  |  | 40 |  |  |  |  |
| C=CCOc1cc2c(c(OCC=C)c1OC)[C@@H]1O[C@H](CO)[C@@H](O)[C@H](O)[C@H]1OC2=O | 3.48 | Non-toxic | 5.5 |  | 18.41 |  |  |
| C#CCOc1cc2c(c(OCC#C)c1OC)[C@@H]1O[C@H](CO)[C@@H](O)[C@H](O)[C@H]1OC2=O | 3.42 | Non-toxic | 19.4 |  | 27.56 |  |  |
| COc1c(O)cc2c(c1O)[C@@H]1O[C@H](CO)[C@@H](O)[C@H](O)[C@H]1OC2=O [BERGENIN] | 3.52 | Non-toxic | 4.3 |  | 7.91 |  |  |
| CCCCCCCCOc1cc2c(c(OCCCCCCCC)c1OC)[C@@H]1O[C@H](CO)[C@@H](O)[C@H](O)[C@H]1OC2=O | 3.65 | Non-toxic | 18 |  | 3.4 |  |  |
| CCCCCOc1cc2c(c(OCCCCC)c1OC)[C@@H]1O[C@H](CO)[C@@H](O)[C@H](O)[C@H]1OC2=O | 3.53 | Non-toxic | 3.4 | 20.9 |  |  |  |
